Laboratory results taken from PMC7191050 (Molecules and Cells, 2020).

How the values were obtained:
Format in all cases: binding
[1] = biological target: T1, Ca IleRS (isoleucyl-tRNA synthetase) (Candida albicans, UniProt Q59RI1); test: X-ray crystal structure at […] Å
T1 sequence (Q59RI1 1-856): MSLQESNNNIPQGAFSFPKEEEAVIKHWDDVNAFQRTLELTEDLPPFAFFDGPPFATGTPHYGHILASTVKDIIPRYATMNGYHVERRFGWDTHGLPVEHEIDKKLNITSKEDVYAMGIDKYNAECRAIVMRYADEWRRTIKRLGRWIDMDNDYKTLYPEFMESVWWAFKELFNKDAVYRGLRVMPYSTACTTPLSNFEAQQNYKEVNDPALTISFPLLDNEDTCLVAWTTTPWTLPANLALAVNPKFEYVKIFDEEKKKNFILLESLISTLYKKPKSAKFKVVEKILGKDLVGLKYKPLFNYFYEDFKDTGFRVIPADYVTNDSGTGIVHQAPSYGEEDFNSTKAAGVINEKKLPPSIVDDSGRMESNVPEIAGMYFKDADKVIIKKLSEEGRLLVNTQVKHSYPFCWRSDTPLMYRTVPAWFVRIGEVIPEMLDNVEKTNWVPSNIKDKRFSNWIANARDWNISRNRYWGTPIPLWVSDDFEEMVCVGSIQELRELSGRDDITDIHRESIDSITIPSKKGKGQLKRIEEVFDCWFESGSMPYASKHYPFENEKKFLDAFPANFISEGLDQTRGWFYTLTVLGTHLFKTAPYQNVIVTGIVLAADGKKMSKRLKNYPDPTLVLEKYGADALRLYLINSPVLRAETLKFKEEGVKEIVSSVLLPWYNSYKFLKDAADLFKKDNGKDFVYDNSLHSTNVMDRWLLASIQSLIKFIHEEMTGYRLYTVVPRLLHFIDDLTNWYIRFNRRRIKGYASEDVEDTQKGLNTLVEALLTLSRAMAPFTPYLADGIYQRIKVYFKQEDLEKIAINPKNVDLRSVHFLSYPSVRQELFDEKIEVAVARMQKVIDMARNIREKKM

[2] = biological target: T2, Ca IleRS (isoleucyl-tRNA synthetase) (Candida albicans, UniProt Q59RI1); test: microscale thermophoresis
T2 sequence (Q59RI1 1-1088): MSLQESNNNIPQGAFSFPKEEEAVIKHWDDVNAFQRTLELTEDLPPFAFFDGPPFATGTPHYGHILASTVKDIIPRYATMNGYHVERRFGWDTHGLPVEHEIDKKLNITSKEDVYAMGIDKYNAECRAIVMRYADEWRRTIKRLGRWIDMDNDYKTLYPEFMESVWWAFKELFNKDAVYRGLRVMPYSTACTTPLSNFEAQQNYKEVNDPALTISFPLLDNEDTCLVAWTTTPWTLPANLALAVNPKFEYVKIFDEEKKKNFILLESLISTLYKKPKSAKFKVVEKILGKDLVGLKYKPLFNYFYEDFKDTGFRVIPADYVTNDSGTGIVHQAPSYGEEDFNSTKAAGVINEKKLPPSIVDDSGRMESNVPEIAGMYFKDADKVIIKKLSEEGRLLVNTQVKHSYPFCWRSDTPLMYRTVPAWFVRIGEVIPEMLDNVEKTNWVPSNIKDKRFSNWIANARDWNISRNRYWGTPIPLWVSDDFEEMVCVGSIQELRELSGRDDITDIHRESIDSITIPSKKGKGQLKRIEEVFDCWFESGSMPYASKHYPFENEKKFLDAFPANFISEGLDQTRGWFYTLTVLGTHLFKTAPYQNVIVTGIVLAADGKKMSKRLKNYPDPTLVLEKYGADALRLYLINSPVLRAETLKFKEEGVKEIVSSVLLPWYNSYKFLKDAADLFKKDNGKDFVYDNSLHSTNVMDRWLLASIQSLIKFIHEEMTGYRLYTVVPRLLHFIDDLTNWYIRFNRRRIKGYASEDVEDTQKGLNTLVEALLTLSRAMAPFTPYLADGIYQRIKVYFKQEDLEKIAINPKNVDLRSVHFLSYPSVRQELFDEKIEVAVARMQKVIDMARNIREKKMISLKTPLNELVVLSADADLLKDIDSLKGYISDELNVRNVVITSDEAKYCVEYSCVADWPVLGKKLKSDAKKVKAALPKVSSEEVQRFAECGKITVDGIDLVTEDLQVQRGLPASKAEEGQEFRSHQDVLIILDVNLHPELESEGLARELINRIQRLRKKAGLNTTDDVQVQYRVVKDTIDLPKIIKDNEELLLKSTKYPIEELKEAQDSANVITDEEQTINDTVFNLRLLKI

[3] = biological target: T3, Ca IleRS mutant (isoleucyl-tRNA synthetase) (Candida albicans, UniProt Q59RI1, I601F/T599H); test: microscale thermophoresis
T3 sequence (Q59RI1 1-1088 T599H/I601F): T2 sequence (Q59RI1 1-1088)

**Q.** For CC[C@H](C)[C@H](N)C(=O)OP(=O)(O)OC[C@H]1O[C@@H](n2cnc3c(N)ncnc32)[C@H](O)[C@@H]1O [Ile-AMP], which “X-ray crystal structure at 2.9 Å (ligand co-purified, none added)” value [1] is on record?
**A.** The crystal structure of Ca IleRS revealed clear electron density for Ile-AMP at the synthetic active site

**Q.** How did the Kd [2] turn out when C/C(=C\C(=O)OCCCCCCCCC(=O)O)C[C@@H]1OC[C@H](C[C@@H]2O[C@H]2[C@@H](C)[C@H](C)O)[C@@H](O)[C@H]1O [mupirocin] was run?
**A.** 103 to 111 µM

**Q.** And the Kd [3]?
**A.** 103 to 111 µM
